Source: article PMC10900488, “Synthesis and Evaluation of (Bis)benzyltetrahydroisoquinoline Alkaloids as Antiparasitic Agents” (JACS Au, 2024)

Legend:
T. cruzi trypomastigotes = test: Antitrypomastigote assay (T. cruzi), resazurin; type: cell-based, Trypanosoma (T.) cruzi; details: Trypanosoma cruzi, 24 h, ± SD, resazurin, read-out: T. cruzi IC50 trypomastigotes
Method: T. cruzi also assumes several cell morphologies during its lifecycle, which differ between the insect vector and mammalian host. In the latter environment, the parasite transitions between extracellular bloodstream trypomastigotes and intracellular amastigotes; both forms are clinically relevant, particularly during the acute stage of Chagas disease.[34] In this work, antitrypanosomal activity was tested against both the amastigote form (evaluated microscopically using an ex vivo intracellular model using mice macrophages) and the trypomastigote form (using the resazurin in vitro assay).[33],[35] […] In silico predictions of pharmacokinetic profiles were carried out using the SwissADME webtool (see the Supporting Information for details).[36] […]
[…] Cultivation was performed in 2% fetal calf serum supplemented RPMI-1640 medium.
The trypomastigotes were maintained in a humidified incubator at 37 °C and with 5% CO2. […]
(§1) Biological activity assays […]
The half inhibitory concentration (IC50) was determined from a sigmoidal regression of the concentration-response curves generated in GraphPadPrism7. […]
Treatment of the cells with selected compounds (serially diluted 1.2 to 150 μM) was performed in a humidified incubator in RPMI 1640 medium for 24 h at 37 °C and with 5% CO2. Resazurin (0.011% in PBS) was added subsequently to verify parasite viability. Benznidazole was used as a standard drug. The optical density was determined at 570 nm using the FilterMax F5 (Molecular Devices). […]

[1] = Mammalian toxicity, MTT colorimetric; type: cell-based, murine; details: mouse
Method: Table 1 depicts the antileishmanial (L. infantum) activity evaluation performed against both the amastigote form (evaluated microscopically using an ex vivo intracellular model of mice macrophages) and the promastigote one (using an MTT colorimetric method).[32],[33] The cytotoxicity was evaluated against NCTC cells using an MTT colorimetric method and the selectivity index was determined using the ratio between the CC50 values (NCTC cells) and the IC50 values (amastigotes).[32] […] With respect to the substituents on the C ring, larger, hydrophobic groups conferred greater bioactivity (e.g., 9b–d), whereas small, hydrophilic groups such as a hydroxyl group afford modest to poor bioactivity. […]
Murine conjunctive fibroblasts NCTC clone 929 (ATCC) were maintained in 10% foetal calf serum supplemented RPMI-1640 medium (pH 7.2) at 37 °C in a humidified incubator with 5% CO2. […]
as §1
(§2) NCTC cells (6 × 10^4/well) were added to a 96-well plate. Treatments of the cells with selected compounds (serially diluted 1.5 to 200 μM) was performed in a humidified incubator for 96 h at 37 °C and with 5% CO2.
(§3) The MTT colorimetric method was used to determine the 50% cytotoxic concentration (CC50) and the selectivity index (CC50 against NCTC cells/IC50 against amastigotes).15 […]
(§4) […] At 6 h and 24 h post-treatment, a 1 mL aliquot was taken for imaging. The cell cycle experiment was preformed twice independently.
(§5) Generation of mNG::RAD51 tagged cell line
(§6) The single-stranded DNA-binding protein RAD51, associated with DNA Repair, LmxM.28.0550 was tagged with endogenous fluorescent protein mNeonGreen (mNG) at the N-terminus. […]
Primers for constructs and sgRNA were designed using LeishGEdit (http://www.leishGEdit.net).
PCR was at 94 °C for 5 min, followed by 35 cycles at 94 °C (15 sec), 65 °C (15 sec), 72 °C (2 min) then finally 72 °C (1 min).
PCR was at 94 °C for 30 sec, followed by 30 cycles at 94 °C (30 sec), 60 °C (30 sec), 72 °C (30 sec) then finally 72 °C (2 min). […] Combined PCR products were precipitated for 20 min with 10 μL 3M sodium acetate and 300 μL EtOH, pelleted at 14000 min-1 30 min, washed once with 70% EtOH, re-pelleted and resuspended in […]
Promastigotes (1 × 10^7 cells) were combined with PCR products and transfected using the Amaxa Nucleofector II.17 Electroporation was performed using 2 mm cuvettes on the X-100 program, followed by immediate suspension in pre-warmed M199 medium. Successful transfectants were selected with 20 μg mL-1 Puromycin 15 h after transfection, taking 4 days to reach stable growth in culture. mNG::RAD51 nuclear foci studies mNG::RAD51 promastigotes (5 × 10^6 cells mL-1) in 7 mL of M199 medium were treated with 7 μL o f compound (S)-9a or (S)-9b dissolved in DMSO giving a final concentration of 50 μM. Phleomycin was used as a positive control at a final concentration of 25 μg mL-1. At T = 0, 15, 30, 60 min, and 2, 6, 24 h post-treatment a 0.8 mL aliquot was taken for imaging.

mNG::RAD51 promastigotes = test: mNG::RAD51 nuclear foci studies; type: cell-based, Leishmania (L.) mexicana; details: 50 μM, up to 24 h
From the text: DSBs often lead to cytotoxicity, which could be an explanation for the observed compound activity.[44]−[46]Leishmania employ the RAD51 DNA recombinase protein as part of its DNA repair machinery to fix naturally occurring nuclear DSBs via homologous recombination.[47]−[50] Using a CRISPR/Cas9 gene editing strategy,[51] we generated a genetically modified cell line with mNeonGreen tagged RAD51. This would allow observation of fluorescent RAD51 protein recruitment to foci in the nucleus corresponding to DSB accumulation, as has been shown in T. brucei.[52],[53] Phleomycin was used as a positive control to induce DSBs,[54] which led to the expected observation of accumulation of RAD51 as green dots in the nucleus in 80% of cells from as early as 2 h posttreatment (Figure 2D). […] We can therefore conclude that the BI compounds tested are unlikely to act via DSBs (albeit this methodology is sensitive only to DSBs in nuclear DNA), and another mechanism of cell cycle disruption is responsible for the breakdown in the healthy cell cycle.
as §2, §3
(§7) […] […] Statistical significance was derived from a two-tailed T-test.
(§8) The Graph Pad Prism 5 software was used to perform sigmoid dose-response curves for the determination of […]
as §4, §5, §6
Primers for constructs and sgRNA were designed using LeishGEdit (http://www.leishGEdit.net). […]

[2] = system: L. mexicana promastigotes; test: Cell cycle studies (K/N counts); type: cell-based, Leishmania (L.) mexicana; details: 50 μM, 6 and 24 h
Method: To investigate whether the morphological changes are a consequence of cell cycle interference, we analyzed the cell cycle over a 24 h period. Untreated L. mexicana promastigotes typically have a doubling time of 7.1 h, with each of the DNA-containing organelles replicating once in the order […], before cytokinesis, leading to two daughter cells.[37],[38] […] Cells treated with (S)-9a at 50 μM were studied after 6 and 24 h of treatment, and found to deviate from the typical cell cycle, giving rise to abnormal categories of cells with incorrectly replicated organelles (Figure 2C). For around 15% of the cells in 1K1N there was the presence of an eXtra structure (1K1N1X) that could not be clearly assigned as K or N, generally toward the posterior end of the cell body.
as §2, §3, §7, §8

Compound	IC50 (T. cruzi trypomastigotes)	CC50 at 96 h [1]	RAD51 nuclear foci (mNG::RAD51 promastigotes)	cells in 1K1N with an extra structure (1K1N1X) [2]	proportion of cells in the dividing stages (Non-1K1N) ([2]; versus the expected 10%)
COc1cc2c(cc1OC)[C@@H](Cc1ccc(Oc3cc(C[C@H]4c5cc(OC)c(OC)cc5CCN4C)ccc3OC)cc1)N(C)CC2 [(S,R)-11, (−)-O,O′-dimethylgrisabine]	2.6 ± 2.9 µM	10.2 ± 1.4 µM			
COc1cc2c(cc1OC)[C@H](Cc1ccc(OC)c(OCc3ccccc3)c1)N(C)CC2 [(S)-9b]	57.7 ± 2.3 µM	47.1 ± 11.2 µM	no RAD51 nuclear foci		
COc1cc2c(cc1OC)[C@H](Cc1ccc(Br)cc1)N(C)CC2 [(S)-9a]	14.4 ± 5.5 µM	42.5 ± 1.5 µM	no RAD51 nuclear foci	around 15%	doubled
